Reference: patent publication US20100173835A1, “Peptides for Treatment of Obesity” (Novo Nordisk A/S, priority 2008, published 2010)
In brackets after ≈: the same amount, converted by molar mass. Like-named read-outs stand apart in the source and are kept apart here. Where a SMILES comes first, the peptide text is derived from it. Bridges are numbered along the chain shown (N, C = ends). [ ]: non-standard residue; d: D form. The star is where a group is joined. Palmitoyl(16-(5-tetrazolyl)) = O=C(CCCCCCCCCCCCCCCc1nnn[nH]1)*; Lys(CH2CO2H)2 = N[C@@H](CCCCN(CC(=O)O)CC(=O)O)C(=O)O; C20 diacid = O=C(O)CCCCCCCCCCCCCCCCCCC(=O)*; C16 diacid = O=C(O)CCCCCCCCCCCCCCC(=O)*; Hyp = O=C(O)[C@@H]1C[C@@H](O)CN1; NTA = O=C(O)CN(CC(=O)O)CC(=O)*; Nle = CCCC[C@H](N)C(=O)O; Dab = NCC[C@H](N)C(=O)O; Dap = NC[C@H](N)C(=O)O; AEEA = NCCOCCOCC(=O)O; βAla = NCCC(=O)O

Assays:
MC1 receptor = target: T1, MC1 receptor (Homo sapiens, UniProt Q01726); assay: Assay (IV) Melanocortin Receptor 1 (MC1) binding assay
T1 construct: expressed in transfected cells
Procedure: Assay (IV)—Melanocortin Receptor 1 (MC1) Binding Assay
The MC1 receptor binding assay is performed on BHK cell membranes stably expressing the MC1 receptor. The assay is performed in a total volume of 250 NI: 25 μl of ^125NDP-α-MSH (22 pM in final concentration), 25 μl of test compound/control and 200 μl of cell membrane (25 μg/ml). Test compounds are dissolved in DMSO. Radioactively labeled ligand, membranes and test compounds are diluted in buffer: 25 mM HEPES, pH 7.4, 0.1 mM CaCl2, 1 mM MgSO4, 1 mM EDTA, 0.1% HSA and 0.005% Tween™ 20. Alternatively, HSA may be substituted with ovalbumin. The samples are incubated at 30° C. for 90 min. in Costar round-bottom microtiter plates. Incubation is terminated by filtration on a Packard harvester filtermate. Rapid filtration through Packard Unifilter-96 GF/B filters pre-treated with polyethylenimine (PerkinElmer 6005277). The filters are washed with ice-cold 0.9% NaCl 8-10 times. The plates is air dried at app. 55° C. for 30 min, and 50 μl Microscint 0 (Packard, cat. No. 6013616) is added to each well. The plates are counted in a Topcounter (1 min/well).
(§1) The data are analysed by non-linear regression analysis of binding curves, using the Windows™ program GraphPad™ Prism (GraphPad Software, USA).

human MC4 receptor = target: T2, human MC4 receptor (Homo sapiens, UniProt P32245); assay: Assay (V) Melanocortin Receptor 4 (MC4) binding assay; conditions: 125NDP-α-MSH binding, BHK cell membranes
T2 construct: expressed in transfected cells
Procedure: Assay (V)—Melanocortin Receptor 4 (MC4) Binding Assay
In vitro ^125NDP-α-MSH binding to recombinant BHK cells expressing human MC4 receptor (filtration assay).
The assay is performed in 5 ml minisorb vials (Sarstedt No. 55.526) or in 96-well filterplates (Millipore MADVN 6550), and using BHK cells expressing the human MC4 receptor using BHK cells stably expressing the human MC4 receptor. The membranes were prepared from frozen or fresh cells that were homogenized in 20 mM HEPES pH 7.1, 5 mM MgCl2 and 1 mg/ml bacitracin and centrifuged at 15000 rpm at 4° C., 10 min in a Sorvall RC 5B plus, SS-34 rotor. The supernatant was discarded, and the pellets were re-suspended in buffer, homogenized and centrifuged two more times. The final pellets were resuspended in the buffer mentioned above, and the protein concentration was measured and adjusted with buffer to 14 to 17 mg/ml and the membrane preparation were kept at −80° C. until assay. The assay was run directly on a dilution of this cell membrane suspension, without any further preparation. The BHK cell membranes are kept at −80° C. until assay, and the assay is run directly on a dilution of this cell membrane suspension, without further preparation. The suspension is diluted to give maximally 10% specific binding, i.e. to approx. 50-100 fold dilution. The assay is performed in a total volume of 200 μl: 50 μl of cell suspension, 50 μl of ^125NDP-α-MSH (≈79 pM in final concentration), 50 μl of test compound and 50 μl binding buffer (pH 7) mixed and incubated for 2 h at 25° C. [binding buffer: 25 mM HEPES, pH 7.0, 1 mM CaCl2, 1 mM MgSO4, 1 mM EGTA, 0.02% Bacitracin, 0.005% Tween™ 20 and 0.1% HSA or, alternatively, 0.1% ovalbumin (Sigma; catalogue No. A-5503)]. Test compounds are dissolved in DMSO and diluted in binding buffer. Radiolabelled ligand and membranes are diluted in binding buffer. The incubation is stopped by dilution with 2×100 μl ice-cold 0.9% NaCl. The radioactivity retained on the filters is counted using a Cobra II auto gamma counter.
as §1

[1] = Solubility data of compounds in water over the pH range; type: physicochemical; conditions: read-out: Conc (solubility in water)
[2] = 125NDP-α-MSH binding, BHK cell membranes, read-out: Assay (IV) MC1 Ki

T1 sequence (Q01726 whole entry): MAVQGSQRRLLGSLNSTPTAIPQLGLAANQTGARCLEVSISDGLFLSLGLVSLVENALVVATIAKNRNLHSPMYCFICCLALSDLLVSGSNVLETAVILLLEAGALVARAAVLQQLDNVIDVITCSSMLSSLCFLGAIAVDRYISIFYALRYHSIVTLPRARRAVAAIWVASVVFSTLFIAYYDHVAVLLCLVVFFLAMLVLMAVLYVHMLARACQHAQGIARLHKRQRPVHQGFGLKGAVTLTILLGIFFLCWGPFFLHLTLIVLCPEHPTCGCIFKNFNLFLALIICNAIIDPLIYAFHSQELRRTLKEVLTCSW
T2 sequence (P32245 whole entry): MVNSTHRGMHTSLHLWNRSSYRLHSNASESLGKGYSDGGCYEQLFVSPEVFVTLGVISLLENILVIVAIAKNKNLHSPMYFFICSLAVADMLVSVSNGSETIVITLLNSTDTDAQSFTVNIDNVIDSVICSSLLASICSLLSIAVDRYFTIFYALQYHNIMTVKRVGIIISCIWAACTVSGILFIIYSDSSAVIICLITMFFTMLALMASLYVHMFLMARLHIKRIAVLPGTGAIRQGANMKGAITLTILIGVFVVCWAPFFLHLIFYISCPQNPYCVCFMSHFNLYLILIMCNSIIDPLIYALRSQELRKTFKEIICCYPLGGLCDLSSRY

Structure (SMILES)	Ki (MC1 receptor; [2]) [nM]	Ki (human MC4 receptor; read-out: Assay (V) MC4 [Ki]) [nM]	Ki (MC1 receptor) [nM]	Ki (human MC4 receptor; Assay (V) MC4 [Ki] (nM)) [nM]	also measured
CCCC[C@H](NC(=O)[C@H](CNC(=O)CN(CC(=O)O)CC(=O)O)NC(=O)[C@H](Cc1c[nH]cn1)NC(=O)[C@H](CCC(N)=O)NC(=O)[C@H](CO)NC(=O)CNC(=O)COCCOCCNC(=O)CCCCCCCCCCCCCCC(=O)O)C(=O)N[C@H]1CCC(=O)NCCCC[C@@H](C(N)=O)NC(=O)[C@H](Cc2c[nH]c3ccccc23)NC(=O)[C@H](CCCNC(=N)N)NC(=O)[C@@H](Cc2ccccc2)NC(=O)[C@@H]2C[C@@H](O)CN2C1=O [Example 13, {2-[2-(15-Carboxypentadecanoylamino)ethoxy]ethoxy}acetyl-Gly-Ser-Gln-His-Dap(BCMA)-Nle-c[Glu-Hyp-D-Phe-Arg-Trp-Lys]-NH2] ({C16 diacid-AEEA}-GSQH[Dap](NTA)[Nle]E[Hyp][dF]RWK-NH2; lactam 7-12)	> 10000	3.6	–	–	–
CCCC[C@H](NC(=O)[C@H](CCNC(=O)CN(CC(=O)O)CC(=O)O)NC(=O)[C@H](Cc1c[nH]cn1)NC(=O)[C@H](CCC(N)=O)NC(=O)[C@H](CO)NC(=O)CNC(=O)COCCOCCNC(=O)CCCCCCCCCCCCCCCc1nnn[nH]1)C(=O)N[C@H]1CCC(=O)NCCCC[C@@H](C(N)=O)NC(=O)[C@H](Cc2c[nH]c3ccccc23)NC(=O)[C@H](CCCNC(=N)N)NC(=O)[C@@H](Cc2ccccc2)NC(=O)[C@@H]2C[C@@H](O)CN2C1=O [Example 10, (2-{2-[16-(Tetrazol-5-yl)hexadecanoylamino]ethoxy}ethoxy)acetyl-Gly-Ser-Gln-His-Dab(BCMA)-Nle-c[Glu-Hyp-D-Phe-Arg-Trp-Lys]-NH2] ({Palmitoyl(16-(5-tetrazolyl))-AEEA}-GSQH[Dab](NTA)[Nle]E[Hyp][dF]RWK-NH2; lactam 7-12)	> 10000	1.05	–	–	–
CCCC[C@H](NC(=O)[C@H](CNC(=O)CN(CC(=O)O)CC(=O)O)NC(=O)[C@H](Cc1cnc[nH]1)NC(=O)[C@H](CCC(N)=O)NC(=O)[C@H](CO)NC(=O)CNC(=O)COCCOCCNC(=O)CCCCCCCCCCCCCCCc1nnn[nH]1)C(=O)N[C@H]1CCC(=O)NCCCC[C@@H](C(N)=O)NC(=O)[C@H](Cc2c[nH]c3ccccc23)NC(=O)[C@H](CCCN=C(N)N)NC(=O)[C@@H](Cc2ccccc2)NC(=O)[C@@H]2C[C@@H](O)CN2C1=O [Example 9, (2-{2-[16-(Tetrazol-5-yl)hexadecanoylamino]ethoxy}ethoxy)acetyl-Gly-Ser-Gln-His-Dap(BCMA)-Nle-c[Glu-Hyp-D-Phe-Arg-Trp-Lys]-NH2] ({Palmitoyl(16-(5-tetrazolyl))-AEEA}-GSQH[Dap](NTA)[Nle]E[Hyp][dF]RWK-NH2; lactam 7-12)	–	–	2670	0.58	–
CCCC[C@H](NC(=O)[C@H](CNC(=O)CN(CC(=O)O)CC(=O)O)NC(=O)[C@H](Cc1ccc(O)cc1)NC(=O)[C@H](CCC(N)=O)NC(=O)[C@H](CO)NC(=O)CNC(=O)COCCOCCNC(=O)CCCCCCCCCCCCCCCc1nnn[nH]1)C(=O)N[C@H]1CCC(=O)NCCCC[C@@H](C(N)=O)NC(=O)[C@H](Cc2c[nH]c3ccccc23)NC(=O)[C@H](CCCNC(=N)N)NC(=O)[C@@H](Cc2ccccc2)NC(=O)[C@@H]2C[C@@H](O)CN2C1=O [Example 19, (2-{2-[16-(Tetrazol-5-yl)hexadecanoylamino]ethoxy}ethoxy)acetyl-Gly-Ser-Gln-Tyr-Dap(BCMA)-Nle-c[Glu-Hyp-D-Phe-Arg-Trp-Lys]-NH2] ({Palmitoyl(16-(5-tetrazolyl))-AEEA}-GSQY[Dap](NTA)[Nle]E[Hyp][dF]RWK-NH2; lactam 7-12)	> 10000	3.9	–	–	–
CCCC[C@H](NC(=O)[C@H](CNC(=O)CN(CC(=O)O)CC(=O)O)NC(=O)[C@H](CO)NC(=O)[C@H](CCC(N)=O)NC(=O)[C@H](CO)NC(=O)CNC(=O)COCCOCCNC(=O)CCCCCCCCCCCCCCCc1nnn[nH]1)C(=O)N[C@H]1CCC(=O)NCCCC[C@@H](C(N)=O)NC(=O)[C@H](Cc2c[nH]c3ccccc23)NC(=O)[C@H](CCCNC(=N)N)NC(=O)[C@@H](Cc2ccccc2)NC(=O)[C@@H]2C[C@@H](O)CN2C1=O [Example 4, (2-{2-[16-(Tetrazol-5-yl)hexadecanoylamino]ethoxy}ethoxy)acetyl-Gly-Ser-Gln-Ser-Dap(BCMA)-Nle-c[Glu-Hyp-D-Phe-Arg-Trp-Lys]-NH2] ({Palmitoyl(16-(5-tetrazolyl))-AEEA}-GSQS[Dap](NTA)[Nle]E[Hyp][dF]RWK-NH2; lactam 7-12)	–	–	4800	5.67	–
CCCC[C@H](NC(=O)CCNC(=O)[C@H](CCCCN(CC(=O)O)CC(=O)O)NC(=O)[C@H](Cc1c[nH]cn1)NC(=O)[C@H](CCC(N)=O)NC(=O)[C@H](CO)NC(=O)[C@H](CO)NC(=O)[C@H](CCC(N)=O)NC(=O)[C@@H](CO)NC(=O)CNC(=O)COCCOCCNC(=O)COCCOCCNC(=O)CCCCCCCCCCCCCCCCCCC(=O)O)C(=O)N[C@H]1CCC(=O)NCCCC[C@@H](C(N)=O)NC(=O)[C@H](Cc2c[nH]c3ccccc23)NC(=O)[C@H](CCCNC(=N)N)NC(=O)[C@@H](Cc2ccccc2)NC(=O)[C@@H]2C[C@@H](O)CN2C1=O [Example 22, {2-[2-(2-{2-[2-(19-Carboxynonadecanoylamino)ethoxy]ethoxy}acetylamino)ethoxy]ethoxy}acetyl-Gly-D-Ser-Gln-Ser-Ser-Gln-His-Lys(biscarboxymethyl)β-Ala-Nle-c[Glu-Hyp-D-Phe-Arg-Trp-Lys]-NH2] ({C20 diacid-AEEA-AEEA}-G[dS]QSSQH[Lys(CH2CO2H)2][βAla][Nle]E[Hyp][dF]RWK-NH2; lactam 11-16)	–	–	> 10000	0.55	–
CCCC[C@H](NC(=O)[C@H](CCCCN(CC(=O)O)CC(=O)O)NC(=O)CCNC(=O)[C@H](Cc1c[nH]cn1)NC(=O)[C@H](CCC(N)=O)NC(=O)[C@H](CO)NC(=O)[C@H](CO)NC(=O)[C@H](CCC(N)=O)NC(=O)[C@@H](CO)NC(=O)CNC(=O)COCCOCCNC(=O)COCCOCCNC(=O)CCCCCCCCCCCCCCCc1nnn[nH]1)C(=O)N[C@H]1CCC(=O)NCCCC[C@@H](C(N)=O)NC(=O)[C@H](Cc2c[nH]c3ccccc23)NC(=O)[C@H](CCCNC(=N)N)NC(=O)[C@@H](Cc2ccccc2)NC(=O)[C@@H]2C[C@@H](O)CN2C1=O [Example 12, (2-{2-[2-(2-{2-[16-(Tetrazol-5-yl)hexadecanoylamino]ethoxy}ethoxy)acetylamino]ethoxy}ethoxy)acetyl-Gly-D-Ser-Gln-Ser-Ser-Gln-His-β-Ala-Lys(biscarboxymethyl)-Nle-c[Glu-Hyp-D-Phe-Arg-Trp-Lys]-NH2] ({Palmitoyl(16-(5-tetrazolyl))-AEEA-AEEA}-G[dS]QSSQH[βAla][Lys(CH2CO2H)2][Nle]E[Hyp][dF]RWK-NH2; lactam 11-16)	–	–	–	2.85	solubility at 3 days ([1]; pH 3.1, pH 3.10): 409 µM (≈ 1060 µg/mL); solubility at 3 days ([1]; pH 4.11, pH 4.11): 374 µM (≈ 971 µg/mL); solubility at 3 days ([1]; pH 4.69, pH 4.69): 395 µM (≈ 1030 µg/mL); solubility at 3 days ([1]; pH 4.82, pH 4.82): 268 µM (≈ 696 µg/mL); solubility at 3 days ([1]; pH 5.07, pH 5.07): 136 µM (≈ 353 µg/mL); solubility at 3 days ([1]; pH 5.56, pH 5.56): 43 µM (≈ 112 µg/mL); solubility at 3 days ([1]; pH 6.71, pH 6.71): 58 µM (≈ 151 µg/mL); solubility at 3 days ([1]; pH 6.71): 87 µM (≈ 226 µg/mL); solubility at 3 days ([1]; pH 6.99): 119 µM (≈ 309 µg/mL); solubility at 3 days ([1]; pH 7.15, pH 7.15): 210 µM (≈ 545 µg/mL); solubility at 3 days ([1]; pH 7.72, pH 7.72): 256 µM (≈ 665 µg/mL)
